In one assay the target is T1, Human IBAT (Homo sapiens, UniProt Q12908).
T1 construct: expressed in transfected cells; Puromycin-selected
T1 sequence (Q12908 1-348): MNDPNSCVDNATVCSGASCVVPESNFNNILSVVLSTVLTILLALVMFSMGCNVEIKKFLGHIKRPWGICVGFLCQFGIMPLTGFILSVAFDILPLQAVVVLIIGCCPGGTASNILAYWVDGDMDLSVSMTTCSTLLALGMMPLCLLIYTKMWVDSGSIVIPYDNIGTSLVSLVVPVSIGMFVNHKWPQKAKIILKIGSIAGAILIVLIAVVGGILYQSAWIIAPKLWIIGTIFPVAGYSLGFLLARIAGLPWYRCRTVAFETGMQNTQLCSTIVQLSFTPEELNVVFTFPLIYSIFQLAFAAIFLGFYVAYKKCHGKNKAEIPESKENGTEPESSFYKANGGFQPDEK
Description: IBAT (h/m) assay, human IBAT-overexpressing cells, 3H-taurocholic acid uptake. The assay is classed as cell-based. To be noted: 0.25 μM 3H-taurocholic acid and 5 μM cold taurocholic acid, 20 minutes, read-out: hIBAT IC50. As for the experimental part:
IBAT (h/m) Assay Protocol
10,000 cells (Human or Mouse IBAT-overexpressing cells) were seeded in 96-wells plate (Corning CLS3809) in 200 μL MEM-alpha medium (Gibco 12571-063) supplemented with 10% FBS (Gibco 10438026) containing Puromycin (Gibco A1113803) (10 μg/mL) and incubated at 37° C. in 5% CO2 for 48 hours. After incubation, media was decanted from the wells and cells were washed two times with 300 μL of basal MEM-alpha medium (FBS-free). After decanting basal MEM-alpha medium each time, plates were tapped against paper towel to ensure maximum removal of residual media. Test inhibitor dilutions (highest test concentration being 10 μM, 3-fold serial dilution, 10 points) prepared in DMSO (Sigma D2650) were added in incubation mix (maintaining 0.2% final DMSO concentration) containing 0.25 μM 3H-taurocholic acid (ARC ART-1368) and 5 μM of cold taurocholic acid (Sigma T4009). 50 μL of incubation mix containing test inhibitors was then added to the wells (in duplicate) and the plates were incubated for 20 minutes in a CO2 incubator at 37° C. After incubation, the reaction was stopped by keeping the plates on ice water mix for 2-3 minutes and then the incubation mix was aspirated completely from the wells. The wells were washed two times with 250 μL of chilled unlabelled 1 mM taurocholic acid dissolved in HEPES (Gibco 15630080)-buffered (10 mM) HBSS (Gibco 14175079) (pH 7.4). The plates were tapped against a paper towel after every wash to ensure maximum removal of blocking buffer.
100 μL of MicroScint-20 (PerkinElmer 6013621) was added to the wells and kept overnight at room temperature before reading the plates in TopCount NXT™ Microplate Scintillation and Luminescence Counter from PerkinElmer under 3H Test protocol (set at 120 seconds reading time per well).
(§1) Preparation of Test Compound Dilutions
(§2) All test compounds were provided in powder form at room temperature. 10 mM DMSO stocks of the test compounds were prepared, aliquoted and stored at −20° C. From the 10 mM DMSO stock of the compounds, a 3-fold serial dilution in DMSO was prepared to get a total of 10 dilutions of the test compounds. 0.5 μL of this dilution in DMSO was added to 250 μL of FBS-free basal media containing 3H-taurocholic acid and cold taurocholic acid to prepare the incubation mixture.

Another assay concerns the target T2, Human LBAT (Homo sapiens, UniProt Q14973).
T2 construct: expressed in transfected cells; Geneticin-selected
T2 sequence (Q14973 1-349): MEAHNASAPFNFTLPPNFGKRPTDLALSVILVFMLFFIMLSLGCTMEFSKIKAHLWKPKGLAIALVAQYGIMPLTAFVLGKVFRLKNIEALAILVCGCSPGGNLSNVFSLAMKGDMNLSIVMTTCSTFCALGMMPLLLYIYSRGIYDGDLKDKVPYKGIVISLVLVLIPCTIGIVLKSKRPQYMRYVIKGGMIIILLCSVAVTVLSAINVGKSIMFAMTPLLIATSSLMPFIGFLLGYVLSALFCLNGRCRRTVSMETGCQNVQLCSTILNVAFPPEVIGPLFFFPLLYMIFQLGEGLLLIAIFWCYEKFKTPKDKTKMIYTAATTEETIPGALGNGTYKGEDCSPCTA
As to the kind of experiment: LBAT (h/m) assay, human LBAT-overexpressing cells, 3H-taurocholic acid uptake. It is filed as cell-based. To be noted: 0.3 μM 3H-taurocholic acid and 7.5 μM cold taurocholic acid, 20 minutes, read-out: hLBAT IC50. As for the experimental part: LBAT (h/m) Assay Protocol
20,000 cells (Human or Mouse LBAT-overexpressing cells) were seeded in 96-wells plate (Corning CLS3809) in 100 μL MEM-alpha medium (Gibco 12571-063) supplemented with 10% FBS (Gibco 10438026) containing Geneticin (Gibco 10131-027) (1 mg/mL) and incubated at 37° C. in 5% CO2 for 24 hours. After incubation, media was decanted from the wells and cells were washed two times with 300 μL of basal MEM-alpha medium (FBS-free). After decanting basal MEM-alpha medium each time, plates were tapped against paper towel to ensure maximum removal of residual media.
For human LBAT, incubation mix was prepared by adding test inhibitor dilutions (3-fold serial dilution in DMSO (Sigma D2650), 10 points) in MEM-alpha (without FBS) containing 0.3 μM 3H-taurocholic acid (ARC ART-1368) and 7.5 μM cold taurocholic acid (Sigma T4009) (maintaining 0.2% final DMSO concentration). For mouse LBAT, incubation mix was prepared by adding test inhibitor dilutions (3-fold serial dilution in DMSO, 10 points) in MEM-alpha (without FBS) containing 0.3 μM 3H-taurocholic acid and 25 μM cold taurocholic acid maintaining 0.2% final DMSO concentration). 50 μL of incubation mix containing test inhibitors was then added to the wells (in duplicate) and the plates were incubated for 20 minutes in a CO2 incubator at 37° C. After incubation, the reaction was stopped by keeping the plates on ice water mix for 2-3 minutes and then the incubation mix was aspirated completely from the wells. The wells were washed two times with 250 μL of chilled unlabelled 1 mM taurocholic acid dissolved in HEPES (Gibco 15630080)-buffered (10 mM) HBSS (Gibco 14175079) (pH 7.4). The plates were tapped against a paper towel after every wash to ensure maximum removal of blocking buffer. 100 μL of MicroScint-20 (PerkinElmer 6013621) was added to the wells and kept overnight at room temperature before reading the plates in TopCount NXT™ Microplate Scintillation and Luminescence Counter from PerkinElmer under 3H Test protocol (set at 120 seconds reading time per well, with normal plate orientation).
as §1, §2

This note sets out measurements from US11773071B2, “Benzothiazepine compounds and their use as bile acid modulators” (Albireo AB, priority 2019, dated 2023).

SMILES strings stand for the structures.

One may read the IC50 as the concentration that gives 50% inhibition. Turning to `CCCCC1(C)CN(c2ccccc2)c2cc(SC)c(OCC(O)C(=O)O)cc2S(=O)(=O)C1` (single isomer, unassigned) [32, diastereomer 2], the IC50 came to 35 nM at Human IBAT and 4080 nM on Human LBAT.
Take `CCCCC1(C)CN(c2ccccc2)c2cc(SC)c(OCC(C)(O)C(=O)O)cc2S(=O)(=O)C1` (single isomer, unassigned) [33, diastereomer 1]: the IC50 on Human IBAT stood at 123 nM; on Human LBAT it was 5940 nM.
As to `CCCCC1(C)CN(c2ccccc2)c2cc(SC)c(OCC(C)(O)C(=O)O)cc2S(=O)(=O)C1` (single isomer, unassigned) [33, diastereomer 2], the IC50 came out at 45 nM on Human IBAT and 1410 nM on Human LBAT.
Consider `CCCCC1(CC)CN(c2ccccc2)c2cc(SC)c(OCC(C)(F)C(=O)O)cc2S(=O)(=O)C1` (single isomer, unassigned) [35, diastereomer 2], for which the IC50 came out at 13 nM at Human IBAT and 138 nM at Human LBAT.
Take `CCCCC1(CC)CN(c2ccccc2)c2cc(SC)c(OCC(O)C(=O)O)cc2S(=O)(=O)C1` (single isomer, unassigned) [40, diastereomer 1]: the IC50 on Human IBAT is 241 nM; on Human LBAT, 1370 nM.
For `CCCCC1(CC)CN(c2ccccc2)c2cc(SC)c(OCC(O)C(=O)O)cc2S(=O)(=O)C1` (single isomer, unassigned) [40, diastereomer 2], in that order: 24 nM and 513 nM.
Take `CCCCC1(CC)CN(c2ccccc2)c2cc(SC)c(OCC(O)C(=O)O)cc2S(=O)(=O)C1` (single isomer, unassigned) [40, diastereomer 3]: the results for the IC50 on Human IBAT and on Human LBAT were 2 nM and 665 nM, respectively.
Taken in the same sequence, the figures for `CCCCC1(CC)CN(c2ccccc2)c2cc(SC)c(OCC(O)C(=O)O)cc2S(=O)(=O)C1` (single isomer, unassigned) [40, diastereomer 4] were 10 nM and 389 nM.
With `CCCCC1(CC)CN(c2ccc(F)cc2)c2cc(SC)c(OCC(O)C(=O)O)cc2S(=O)(=O)C1` (single isomer, unassigned) [42, diastereomer 1], the IC50 on Human IBAT turned out to be 19 nM; on Human LBAT, 1290 nM.
In the case of `CCCCC1(CC)CN(c2ccc(F)cc2)c2cc(SC)c(OCC(O)C(=O)O)cc2S(=O)(=O)C1` (single isomer, unassigned) [42, diastereomer 2], the IC50 on Human IBAT is 36 nM; at Human LBAT, 2310 nM.
Taken in the same sequence, the figures for `CCCCC1(CC)CN(c2ccc(F)cc2)c2cc(SC)c(OCC(O)C(=O)O)cc2S(=O)(=O)C1` (single isomer, unassigned) [42, diastereomer 3] were 0.5 nM and 892 nM.
Consider `CCCCC1(CC)CN(c2ccc(F)cc2)c2cc(SC)c(OCC(O)C(=O)O)cc2S(=O)(=O)C1` (single isomer, unassigned) [42, diastereomer 4], for which the figures for the IC50 at Human IBAT and on Human LBAT were 1 nM and 689 nM, respectively.
Turning to `CCCCC1(CC)CN(c2ccccc2)c2cc(OC)c(OCCC(=O)O)cc2S(=O)(=O)C1` (single isomer, unassigned) [44, enantiomer 1], the results for the IC50 on Human IBAT and at Human LBAT were 46 nM and above 20000 nM, respectively.
In the case of `CCCCC1(CC)CN(c2ccccc2)c2cc(OC)c(OCCC(=O)O)cc2S(=O)(=O)C1` (single isomer, unassigned) [44, enantiomer 2], the figures for the concentration for half-maximal inhibition (IC50) on Human IBAT and on Human LBAT were 392 nM and above 23000 nM, respectively.
Taken in the same sequence, the figures for `CCCCC1(CC)CN(c2ccccc2)c2cc(SC)c(OCC(C)(O)C(=O)O)cc2S(=O)(=O)C1` (single isomer, unassigned) [48, diastereomer 1] were 56 nM and 1190 nM.
As for `CCCCC1(CC)CN(c2ccccc2)c2cc(Br)c(OCCC(=O)O)cc2S(=O)(=O)C1` (single isomer, unassigned) [Example 3, 3-((7-bromo-3-butyl-3-ethyl-1,1-dioxido-5-phenyl-2,3,4,5-tetrahydro-1,5-benzothiazepin-8-yl)oxy)propanoic acid], the IC50 at Human IBAT amounted to 241 nM; on Human LBAT it was 837 nM.
Turning to `CCCCC1(CC)CN(c2ccccc2)c2cc(Cl)c(OCCC(=O)O)cc2S(=O)(=O)C1` (single isomer, unassigned) [Example 7, 3-((3-butyl-7-chloro-3-ethyl-1,1-dioxido-5-phenyl-2,3,4,5-tetrahydro-1,5-benzothiazepin-8-yl)oxy)propanoic acid], the IC50 on Human IBAT came out at 418 nM; at Human LBAT it was 969 nM.
Take `CCCCC1(CC)CN(c2ccccc2)c2cc(SC)c(OCCC(=O)O)cc2S(=O)(=O)C1` (single isomer, unassigned) [Example 14, 3-((3-butyl-3-ethyl-7-(methylthio)-1,1-dioxido-5-phenyl-2,3,4,5-tetrahydro-1,5-benzothiazepin-8-yl)oxy)propanoic acid]: the IC50 on Human IBAT was 58 nM; on Human LBAT, 764 nM.
On to `CCCCC1(CCCC)CN(c2ccccc2)c2cc(SC)c(OCC(C)(O)C(=O)O)cc2S(=O)(=O)C1` (single isomer, unassigned) [Example 20, 3-((3,3-dibutyl-7-(methylthio)-1,1-dioxido-5-phenyl-2,3,4,5-tetrahydro-1,5-benzothiazepin-8-yl)oxy)-2-hydroxy-2-methylpropanoic acid], for which the IC50 came to 42 nM at Human IBAT and 1390 nM on Human LBAT.
For `CCCCC1(CCCC)CN(c2ccccc2)c2cc(SC)c(OCC(C)(O)C(=O)O)cc2S(=O)(=O)C1` (single isomer, unassigned) [Example 21, 3-((3,3-dibutyl-7-(methylthio)-1,1-dioxido-5-phenyl-2,3,4,5-tetrahydro-1,5-benzothiazepin-8-yl)oxy)-2-hydroxy-2-methylpropanoic acid], in that order: 19 nM and 608 nM.
